Literature values, collected in US20240366580A1, “NOVEL PHARMACEUTICAL COMPOSITIONS COMPRISING DABIGATRAN ETEXILATE OR SALT THEREOF” (Zim Laboratories Limited, priority 2021, published 2024).
Structures can show the parent of a compound that is named as a salt.

Key:
[1] = high permeability, low solubility
[2] = oral administration

BCS class [1]: Class II
solubility in ethanol (ethanol): slightly soluble
solubility in isopropanol (isopropanol): sparingly soluble
solubility in methanol (methanol): freely soluble
absolute bioavailability [2]: 3-7%
SMILES: CCCCCCOC(=O)NC(=N)c1ccc(NCc2nc3cc(C(=O)N(CCC(=O)OCC)c4ccccn4)ccc3n2C)cc1 [Dabigatran etexilate mesylate, β-Alanine, N-[[2-[[[4-[[[(hexyloxy)carbonyl]amino]iminomethyl]phenyl]amino]methyl]-1-methyl-1H-benzimidazol-5-yl]carbonyl]-N-2-pyridinyl-,ethyl ester, methanesulfonate]
